The structures appear in SMILES notation. Values joined by “and” are separate entries in the source; they are usually repeats but may differ in a detail not shown here. Equal values may be shown once. Toxic doses and inconclusive results are not listed.

The assay deals with CD2F1 mice, L1210 leukemia ip, survival T/C. The experiment in a line: NCI In Vivo Anticancer Drug Screen. Data for tumor model L1210 Leukemia (intraperitoneal) in CD2F1 (CDF1) mice. The note with it: higher = longer survival. A digest of the protocol: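 Transplantable tumor in mice; compound-treated vs vehicle-treated groups. Read-out = treated/control ratio of the measured endpoint.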

The mark [1] stands for this setting: endpoint: mean survival time, dose: 50.0 mg/kg/injection, schedule: Q04DX002 (ip), vehicle: saline with Tween-80.
Setting [2] is: endpoint: mean survival time, dose: 100.0 mg/kg/injection, schedule: Q04DX002 (ip), vehicle: saline with Tween-80.
[3] abbreviates: endpoint: mean survival time, dose: 100.0 mg/kg/injection, schedule: Q04DX003 (ip), vehicle: saline with Tween-80.
Where [4] appears, read: endpoint: mean survival time, dose: 200.0 mg/kg/injection, schedule: Q04DX003 (ip), vehicle: saline with Tween-80.
[5] abbreviates: endpoint: mean survival time, dose: 400.0 mg/kg/injection, schedule: Q04DX003 (ip), vehicle: saline with Tween-80.
The mark [6] stands for this setting: endpoint: mean survival time, dose: 100.0 mg/kg/injection, schedule: Q01DX009 (ip), vehicle: Klucel (hydroxypropylcellulose) (HPC).
Where [7] appears, read: endpoint: mean survival time, dose: 200.0 mg/kg/injection, schedule: Q01DX009 (ip), vehicle: Klucel (hydroxypropylcellulose) (HPC).
Setting [8] is: endpoint: mean survival time, dose: 400.0 mg/kg/injection, schedule: Q01DX009 (ip), vehicle: Klucel (hydroxypropylcellulose) (HPC).
Setting [9] is: endpoint: mean survival time, dose: 50.0 mg/kg/injection, schedule: Q01DX009 (ip), vehicle: saline.
The mark [10] stands for this setting: endpoint: mean survival time, dose: 100.0 mg/kg/injection, schedule: Q01DX009 (ip), vehicle: saline.
The mark [11] stands for this setting: endpoint: mean survival time, dose: 50.0 mg/kg/injection, schedule: Q01DX009 (ip), vehicle: saline with Tween-80.
[12] abbreviates: endpoint: mean survival time, dose: 100.0 mg/kg/injection, schedule: Q01DX009 (ip), vehicle: saline with Tween-80.
Where [13] appears, read: endpoint: mean survival time, dose: 200.0 mg/kg/injection, schedule: Q01DX009 (ip), vehicle: saline with Tween-80.
The mark [14] stands for this setting: endpoint: mean survival time, dose: 200.0 mg/kg/injection, schedule: Q04DX002 (ip), vehicle: saline with Tween-80.
Setting [15] is: endpoint: mean survival time, dose: 400.0 mg/kg/injection, schedule: Q04DX002 (ip), vehicle: saline with Tween-80.
Setting [16] is: endpoint: mean survival time, dose: 25.0 mg/kg/injection, schedule: Q01DX009 (ip), vehicle: saline.

For the compound `CCC(CNCCCC(=O)O)(C(=O)O)C(=O)O`, the T/C runs as follows: (endpoint: mean survival time, dose: 25.0 mg/kg/injection, schedule: Q04DX002 (ip), vehicle: saline with Tween-80) 98 % of control; under setting [1], 94 % of control; under setting [2], 102 % of control.
Consider `CCOC(=O)Cc1nnc(N)s1`, for which the T/C is, setting by setting: under setting [3], 96 % of control; under setting [4], 100 % of control; under setting [5], 102 % of control.
Regarding `COc1ccccc1/C=N/NC(=O)c1ccccc1`, the T/C is 102 % of control under setting [6]; 91 % of control (endpoint: mean survival time, dose: 100.0 mg/kg/injection, schedule: Q04DX003 (ip), vehicle: Klucel (hydroxypropylcellulose) (HPC)); 96 % of control under setting [7]; 96 % of control (endpoint: mean survival time, dose: 200.0 mg/kg/injection, schedule: Q04DX003 (ip), vehicle: Klucel (hydroxypropylcellulose) (HPC)); 108 % of control under setting [8]; 94 % of control (endpoint: mean survival time, dose: 400.0 mg/kg/injection, schedule: Q04DX003 (ip), vehicle: Klucel (hydroxypropylcellulose) (HPC)).
`O=C(N1CCOCC1)C1(c2ccccc2)CCNCC1`: the T/C is 93 % of control under setting [9] and 104 % of control under setting [10].
In the case of `CCCCCCCCCCCCCCCCCCCCCC(=O)CCCCCCCCCCCCCCCCCCCCC`, the T/C (endpoint: mean survival time, dose: 100.0 mg/kg/injection, schedule: Q01DX001 (ip), vehicle: saline with Tween-80) was 86 % of control; the T/C (endpoint: mean survival time, dose: 200.0 mg/kg/injection, schedule: Q01DX001 (ip), vehicle: saline with Tween-80) was 93 % of control; the T/C (endpoint: mean survival time, dose: 400.0 mg/kg/injection, schedule: Q01DX001 (ip), vehicle: saline with Tween-80) was 101 % of control.
Consider `CCCCCCCCCCCCCCCC(=O)NCCNC(=O)CCCCCCCCCCCCCCC`, for which the T/C is 92 % of control under setting [11]; 98 % of control (endpoint: mean survival time, dose: 75.0 mg/kg/injection, schedule: Q01DX001 (ip), vehicle: saline); 90 % of control under setting [12]; 93 % of control (endpoint: mean survival time, dose: 150.0 mg/kg/injection, schedule: Q01DX001 (ip), vehicle: saline); 94 % of control under setting [13]; 98 % of control (endpoint: mean survival time, dose: 300.0 mg/kg/injection, schedule: Q01DX001 (ip), vehicle: saline).
On to `CCOC(=O)/C=C/C(=O)N1CCN(C(=O)/C=C/C(=O)OCC)C(C)C1` (stereo not drawn), for which the T/C by setting is: (endpoint: median survival time, dose: 25.0 mg/kg/injection, schedule: Q01DX009 (ip), vehicle: Klucel (hydroxypropylcellulose) (HPC)) 106 % of control; (endpoint: median survival time, dose: 50.0 mg/kg/injection, schedule: Q01DX009 (ip), vehicle: Klucel (hydroxypropylcellulose) (HPC)) 110 % of control; (endpoint: median survival time, dose: 100.0 mg/kg/injection, schedule: Q01DX009 (ip), vehicle: Klucel (hydroxypropylcellulose) (HPC)) 109 % of control; (endpoint: median survival time, dose: 200.0 mg/kg/injection, schedule: Q01DX009 (ip), vehicle: Klucel (hydroxypropylcellulose) (HPC)) 109 % of control; (endpoint: median survival time, dose: 400.0 mg/kg/injection, schedule: Q01DX009 (ip), vehicle: Klucel (hydroxypropylcellulose) (HPC)) 109 % of control.
Take `Nc1nc2ccc(CSc3ccc(C(=O)NC(CCC(=O)O)C(=O)O)cc3)nc2c(=O)[nH]1` (stereo not drawn): the T/C (endpoint: mean survival time, dose: 0.5 mg/kg/injection, schedule: Q01DX005 (ip), vehicle: sodium bicarbonate) was 103 % of control and 106 % of control; the T/C (endpoint: mean survival time, dose: 1.0 mg/kg/injection, schedule: Q01DX005 (ip), vehicle: sodium bicarbonate) is 97 % of control and 106 % of control; the T/C (endpoint: mean survival time, dose: 2.0 mg/kg/injection, schedule: Q01DX005 (ip), vehicle: sodium bicarbonate) was 97 % of control and 108 % of control; the T/C (endpoint: mean survival time, dose: 4.0 mg/kg/injection, schedule: Q01DX005 (ip), vehicle: sodium bicarbonate) is 101 % of control and 106 % of control; the T/C (endpoint: mean survival time, dose: 8.0 mg/kg/injection, schedule: Q01DX005 (ip), vehicle: sodium bicarbonate) is 97 % of control and 108 % of control; the T/C (endpoint: mean survival time, dose: 16.0 mg/kg/injection, schedule: Q01DX005 (ip), vehicle: sodium bicarbonate) is 102 % of control and 103 % of control.
Regarding `CC(=NCC(C)N=C(C)c1ccccc1O)c1ccccc1O.[Ni]` (stereo not drawn), the T/C under setting [1] is 109 % of control, the T/C under setting [2] was 97 % of control, the T/C under setting [14] is 97 % of control and the T/C under setting [15] was 97 % of control.
Regarding `NC(=O)c1c2ccccc2nn1C1OC(CO)C(O)C1O` (stereo not drawn), the T/C reads like this: (endpoint: mean survival time, dose: 100.0 mg/kg/injection, schedule: Q01DX005 (ip), vehicle: saline) 96 % of control; (endpoint: mean survival time, dose: 200.0 mg/kg/injection, schedule: Q01DX005 (ip), vehicle: saline) 102 % of control.
On to `CC(C)(C)OC(=O)NCCCCC(NC(=O)OC(C)(C)C)C(=O)O` (stereo not drawn), for which the T/C reads like this: (endpoint: mean survival time, dose: 100.0 mg/kg/injection, schedule: Q01DX001 (ip), vehicle: saline) 100 % of control; (endpoint: mean survival time, dose: 200.0 mg/kg/injection, schedule: Q01DX001 (ip), vehicle: saline) 110 % of control; (endpoint: mean survival time, dose: 400.0 mg/kg/injection, schedule: Q01DX001 (ip), vehicle: saline) 97 % of control.
As for `CCOC(=O)c1c(C)[nH]oc1=O`, the T/C under setting [12] was 96 % of control.
As to `ClC1=NC(Cl)(Cl)C(Cl)=C1Cl`, the T/C reads like this: (endpoint: mean survival time, dose: 6.25 mg/kg/injection, schedule: Q04DX002 (ip), vehicle: saline) 95 % of control; (endpoint: mean survival time, dose: 12.5 mg/kg/injection, schedule: Q04DX002 (ip), vehicle: saline) 95 % of control; (endpoint: mean survival time, dose: 25.0 mg/kg/injection, schedule: Q04DX002 (ip), vehicle: saline) 98 % of control.
On to `Cc1cc(=S)n(C)c2ccccc12`, for which the T/C was 94 % of control under setting [12]; 93 % of control under setting [3]; 93 % of control under setting [13]; 96 % of control under setting [4]; 98 % of control (endpoint: mean survival time, dose: 400.0 mg/kg/injection, schedule: Q01DX009 (ip), vehicle: saline with Tween-80); 88 % of control under setting [5].
Take `CCCCN=C(C(=NCCCC)N(CCCC)CCCC)N(CCCC)CCCC`: the T/C is 101 % of control under setting [2], 89 % of control under setting [14] and 98 % of control under setting [15].
Turning to `Nc1cc(OCc2ccccc2)c2n[nH]nc2n1`, the T/C was 96 % of control (endpoint: mean survival time, dose: 25.0 mg/kg/injection, schedule: Q01DX005 (ip), vehicle: other); 92 % of control (endpoint: mean survival time, dose: 50.0 mg/kg/injection, schedule: Q01DX005 (ip), vehicle: other); 94 % of control (endpoint: mean survival time, dose: 200.0 mg/kg/injection, schedule: Q01DX005 (ip), vehicle: other); 105 % of control (endpoint: mean survival time, dose: 400.0 mg/kg/injection, schedule: Q01DX005 (ip), vehicle: other).
On to `NC(CCSCc1ccc(N(CCCl)CCCl)cc1)C(=O)O` (stereo not drawn), for which, where the note is “endpoint: mean survival time, dose: 14.0 mg/kg/injection, schedule: Q01DX009 (ip), vehicle: carboxymethylcellulose (CMC)”, the T/C is 152 % of control.
In the case of `O=C(OC(c1ccccc1)(C(F)(F)F)C(F)(F)F)c1ccccc1Sc1ccccc1`, the T/C was 98 % of control under setting [3], 93 % of control under setting [4] and 93 % of control under setting [5].
In the case of `N.O=S(=O)(O)O.[Al]`, the T/C was 97 % of control under setting [11]; 91 % of control under setting [12]; 94 % of control under setting [3]; 96 % of control under setting [13]; 99 % of control under setting [4].
Turning to `c1ccc(Sc2cccc3c(-c4ccccc4)c4cccc5c4c(c23)C[S+]5c2ccccc2)cc1` (stereo not drawn), the T/C runs as follows: (endpoint: mean survival time, dose: 3.13 mg/kg/injection, schedule: Q04DX003 (ip), vehicle: saline with Tween-80) 96 % of control; (endpoint: mean survival time, dose: 6.25 mg/kg/injection, schedule: Q04DX003 (ip), vehicle: saline with Tween-80) 96 % of control; (endpoint: mean survival time, dose: 12.5 mg/kg/injection, schedule: Q04DX003 (ip), vehicle: saline with Tween-80) 93 % of control.
For `OC1CCC2=C(C1)C1CCC2C1` (stereo not drawn), the T/C was 98 % of control (endpoint: mean survival time, dose: 12.5 mg/kg/injection, schedule: Q01DX009 (ip), vehicle: saline); 103 % of control under setting [16]; 97 % of control under setting [9].
Consider `CN(C)c1ccc(/C=C/c2ccc3ccccc3n2)c(F)c1`, for which the T/C under setting [6] was 100 % of control, the T/C under setting [7] is 98 % of control and the T/C under setting [8] is 89 % of control.
As for `Cc1ccc([N+](=O)[O-])cc1O`, the T/C runs as follows: under setting [16], 97 % of control; under setting [9], 106 % of control; under setting [10], 100 % of control.
For the compound `CCCC(C)CC1CCC(N)CC1` (stereo not drawn), the T/C (endpoint: mean survival time, dose: 100.0 mg/kg/injection, schedule: Q04DX002 (ip), vehicle: saline) is 96 % of control and the T/C (endpoint: mean survival time, dose: 200.0 mg/kg/injection, schedule: Q04DX002 (ip), vehicle: saline) was 96 % of control.
